ChEMBL document CHEMBL5724914, “Linking interpersonal differences in gut microbiota composition and drug biotransformation activity” (2024)

Conditions: human gut metagenome, 24 h, 2 µM
Also: call rule not given here.

Bacterial Biotransformation	Compound
Compound NOT metabolized	CCN(CC)CCNC(=O)c1cc(Cl)c(N)cc1OC [METOCLOPRAMIDE]
Compound NOT metabolized	Cc1ccccc1N1C(=O)c2cc(S(N)(=O)=O)c(Cl)cc2NC1C (stereo not given) [METOLAZONE]
Compound NOT metabolized	CC(C)(C#N)c1cc(Cn2cncn2)cc(C(C)(C)C#N)c1 [ANASTROZOLE]
Compound NOT metabolized	CNS(=O)(=O)Cc1ccc2[nH]cc(CCN(C)C)c2c1.O=C(O)CCC(=O)O [SUMATRIPTAN SUCCINATE]

Conditions: human gut metagenome, 24 h, 2 µM
Remark: another data set of the same source

Bacterial Biotransformation	Compound
Compound NOT metabolized	CCN(CC)CCNC(=O)c1cc(Cl)c(N)cc1OC [METOCLOPRAMIDE]
Compound metabolized	Cc1ccccc1N1C(=O)c2cc(S(N)(=O)=O)c(Cl)cc2NC1C (stereo not given) [METOLAZONE]
Compound metabolized	CC(C)(C#N)c1cc(Cn2cncn2)cc(C(C)(C)C#N)c1 [ANASTROZOLE]
Compound NOT metabolized	CNS(=O)(=O)Cc1ccc2[nH]cc(CCN(C)C)c2c1.O=C(O)CCC(=O)O [SUMATRIPTAN SUCCINATE]

Assay: The drug is tested on Z-008 corresponding to metagenome with ENA study accession number: PRJEB37062 and ENA sample accession number: ERS12561808 for biotransformation under anaerobic condition. The drug concentrations were measured over 9 timepoints collected between 0 and 24 hours of incubation by liquid-chromatography-coupled mass spectrometry (LC–MS)
Conditions: 2 µM

Bacterial Biotransformation	Compound
Compound NOT metabolized	CCN(CC)CCNC(=O)c1cc(Cl)c(N)cc1OC [METOCLOPRAMIDE]
Compound NOT metabolized	Cc1ccccc1N1C(=O)c2cc(S(N)(=O)=O)c(Cl)cc2NC1C (stereo not given) [METOLAZONE]
Compound NOT metabolized	CC(C)(C#N)c1cc(Cn2cncn2)cc(C(C)(C)C#N)c1 [ANASTROZOLE]
Compound NOT metabolized	CNS(=O)(=O)Cc1ccc2[nH]cc(CCN(C)C)c2c1.O=C(O)CCC(=O)O [SUMATRIPTAN SUCCINATE]

Conditions: human gut metagenome, 24 h, 2 µM
Remark: another data set of the same source

Bacterial Biotransformation	Compound
Compound NOT metabolized	CCN(CC)CCNC(=O)c1cc(Cl)c(N)cc1OC [METOCLOPRAMIDE]
Compound NOT metabolized	Cc1ccccc1N1C(=O)c2cc(S(N)(=O)=O)c(Cl)cc2NC1C (stereo not given) [METOLAZONE]
Compound NOT metabolized	CC(C)(C#N)c1cc(Cn2cncn2)cc(C(C)(C)C#N)c1 [ANASTROZOLE]
Compound NOT metabolized	CNS(=O)(=O)Cc1ccc2[nH]cc(CCN(C)C)c2c1.O=C(O)CCC(=O)O [SUMATRIPTAN SUCCINATE]

Conditions: human gut metagenome, 24 h, 2 µM
Remark: another data set of the same source

Bacterial Biotransformation	Compound
Compound NOT metabolized	CCN(CC)CCNC(=O)c1cc(Cl)c(N)cc1OC [METOCLOPRAMIDE]
Compound NOT metabolized	Cc1ccccc1N1C(=O)c2cc(S(N)(=O)=O)c(Cl)cc2NC1C (stereo not given) [METOLAZONE]
Compound NOT metabolized	CC(C)(C#N)c1cc(Cn2cncn2)cc(C(C)(C)C#N)c1 [ANASTROZOLE]
Compound NOT metabolized	CNS(=O)(=O)Cc1ccc2[nH]cc(CCN(C)C)c2c1.O=C(O)CCC(=O)O [SUMATRIPTAN SUCCINATE]

Assay: (§1) The drug is tested on Z-014 corresponding to rat gut metagenome with ENA study accession number: PRJEB37062 and ENA sample accession number: ERS12561814 for biotransformation under anaerobic condition. The drug concentrations were measured over 9 timepoints collected between 0 and 24 hours of incubation by liquid-chromatography-coupled mass spectrometry (LC–MS)
Conditions: 2 µM

Bacterial Biotransformation	Compound
Compound NOT metabolized	CCN(CC)CCNC(=O)c1cc(Cl)c(N)cc1OC [METOCLOPRAMIDE]
Compound NOT metabolized	Cc1ccccc1N1C(=O)c2cc(S(N)(=O)=O)c(Cl)cc2NC1C (stereo not given) [METOLAZONE]
Compound NOT metabolized	CC(C)(C#N)c1cc(Cn2cncn2)cc(C(C)(C)C#N)c1 [ANASTROZOLE]
Compound NOT metabolized	CNS(=O)(=O)Cc1ccc2[nH]cc(CCN(C)C)c2c1.O=C(O)CCC(=O)O [SUMATRIPTAN SUCCINATE]

Conditions: human gut metagenome, 24 h, 2 µM
Remark: another data set of the same source

Bacterial Biotransformation	Compound
Compound NOT metabolized	CCN(CC)CCNC(=O)c1cc(Cl)c(N)cc1OC [METOCLOPRAMIDE]
Compound NOT metabolized	Cc1ccccc1N1C(=O)c2cc(S(N)(=O)=O)c(Cl)cc2NC1C (stereo not given) [METOLAZONE]
Compound NOT metabolized	CC(C)(C#N)c1cc(Cn2cncn2)cc(C(C)(C)C#N)c1 [ANASTROZOLE]
Compound metabolized	CNS(=O)(=O)Cc1ccc2[nH]cc(CCN(C)C)c2c1.O=C(O)CCC(=O)O [SUMATRIPTAN SUCCINATE]

Conditions: human gut metagenome, 24 h, 2 µM
Remark: another data set of the same source

Bacterial Biotransformation	Compound
Compound NOT metabolized	CCN(CC)CCNC(=O)c1cc(Cl)c(N)cc1OC [METOCLOPRAMIDE]
Compound metabolized	Cc1ccccc1N1C(=O)c2cc(S(N)(=O)=O)c(Cl)cc2NC1C (stereo not given) [METOLAZONE]
Compound NOT metabolized	CC(C)(C#N)c1cc(Cn2cncn2)cc(C(C)(C)C#N)c1 [ANASTROZOLE]
Compound NOT metabolized	CNS(=O)(=O)Cc1ccc2[nH]cc(CCN(C)C)c2c1.O=C(O)CCC(=O)O [SUMATRIPTAN SUCCINATE]

Assay: as §1, with “on Z-013” for “on Z-014”, “to rabbit” for “to rat”, “number: ERS12561813” for “number: ERS12561814”
Conditions: 2 µM

Bacterial Biotransformation	Compound
Compound NOT metabolized	CCN(CC)CCNC(=O)c1cc(Cl)c(N)cc1OC [METOCLOPRAMIDE]
Compound NOT metabolized	Cc1ccccc1N1C(=O)c2cc(S(N)(=O)=O)c(Cl)cc2NC1C (stereo not given) [METOLAZONE]
Compound NOT metabolized	CC(C)(C#N)c1cc(Cn2cncn2)cc(C(C)(C)C#N)c1 [ANASTROZOLE]
Compound NOT metabolized	CNS(=O)(=O)Cc1ccc2[nH]cc(CCN(C)C)c2c1.O=C(O)CCC(=O)O [SUMATRIPTAN SUCCINATE]

Conditions: human gut metagenome, 24 h, 2 µM
Remark: another data set of the same source

Bacterial Biotransformation	Compound
Compound NOT metabolized	CCN(CC)CCNC(=O)c1cc(Cl)c(N)cc1OC [METOCLOPRAMIDE]
Compound metabolized	Cc1ccccc1N1C(=O)c2cc(S(N)(=O)=O)c(Cl)cc2NC1C (stereo not given) [METOLAZONE]
Compound metabolized	CC(C)(C#N)c1cc(Cn2cncn2)cc(C(C)(C)C#N)c1 [ANASTROZOLE]
Compound NOT metabolized	CNS(=O)(=O)Cc1ccc2[nH]cc(CCN(C)C)c2c1.O=C(O)CCC(=O)O [SUMATRIPTAN SUCCINATE]

Assay: as §1, with “on Z-016” for “on Z-014”, “to mouse” for “to rat”, “number: ERS12561815” for “number: ERS12561814”
Conditions: 2 µM

Bacterial Biotransformation	Compound
Compound NOT metabolized	CCN(CC)CCNC(=O)c1cc(Cl)c(N)cc1OC [METOCLOPRAMIDE]
Compound NOT metabolized	Cc1ccccc1N1C(=O)c2cc(S(N)(=O)=O)c(Cl)cc2NC1C (stereo not given) [METOLAZONE]
Compound NOT metabolized	CC(C)(C#N)c1cc(Cn2cncn2)cc(C(C)(C)C#N)c1 [ANASTROZOLE]
Compound NOT metabolized	CNS(=O)(=O)Cc1ccc2[nH]cc(CCN(C)C)c2c1.O=C(O)CCC(=O)O [SUMATRIPTAN SUCCINATE]

Assay: as §1, with “on WLS-038” for “on Z-014”, “to human” for “to rat”, “number: ERS12561745” for “number: ERS12561814”
Conditions: 2 µM

Bacterial Biotransformation	Compound
Compound NOT metabolized	CCN(CC)CCNC(=O)c1cc(Cl)c(N)cc1OC [METOCLOPRAMIDE]
Compound NOT metabolized	Cc1ccccc1N1C(=O)c2cc(S(N)(=O)=O)c(Cl)cc2NC1C (stereo not given) [METOLAZONE]
Compound NOT metabolized	CC(C)(C#N)c1cc(Cn2cncn2)cc(C(C)(C)C#N)c1 [ANASTROZOLE]
Compound NOT metabolized	CNS(=O)(=O)Cc1ccc2[nH]cc(CCN(C)C)c2c1.O=C(O)CCC(=O)O [SUMATRIPTAN SUCCINATE]

Assay: as §1, with “on WLS-007” for “on Z-014”, “to human” for “to rat”, “number: ERS12561742” for “number: ERS12561814”
Conditions: 2 µM

Bacterial Biotransformation	Compound
Compound NOT metabolized	CCN(CC)CCNC(=O)c1cc(Cl)c(N)cc1OC [METOCLOPRAMIDE]
Compound NOT metabolized	Cc1ccccc1N1C(=O)c2cc(S(N)(=O)=O)c(Cl)cc2NC1C (stereo not given) [METOLAZONE]
Compound NOT metabolized	CC(C)(C#N)c1cc(Cn2cncn2)cc(C(C)(C)C#N)c1 [ANASTROZOLE]
Compound NOT metabolized	CNS(=O)(=O)Cc1ccc2[nH]cc(CCN(C)C)c2c1.O=C(O)CCC(=O)O [SUMATRIPTAN SUCCINATE]

Assay: as §1, with “Z-019” for “Z-014”, “ERS12561818” for “ERS12561814”
Conditions: 2 µM

Bacterial Biotransformation	Compound
Compound NOT metabolized	CCN(CC)CCNC(=O)c1cc(Cl)c(N)cc1OC [METOCLOPRAMIDE]
Compound NOT metabolized	Cc1ccccc1N1C(=O)c2cc(S(N)(=O)=O)c(Cl)cc2NC1C (stereo not given) [METOLAZONE]
Compound NOT metabolized	CC(C)(C#N)c1cc(Cn2cncn2)cc(C(C)(C)C#N)c1 [ANASTROZOLE]
Compound NOT metabolized	CNS(=O)(=O)Cc1ccc2[nH]cc(CCN(C)C)c2c1.O=C(O)CCC(=O)O [SUMATRIPTAN SUCCINATE]

Assay: as §1, with “on WLS-220” for “on Z-014”, “to human” for “to rat”, “number: ERS12561769” for “number: ERS12561814”
Conditions: 2 µM

Bacterial Biotransformation	Compound
Compound NOT metabolized	CCN(CC)CCNC(=O)c1cc(Cl)c(N)cc1OC [METOCLOPRAMIDE]
Compound metabolized	Cc1ccccc1N1C(=O)c2cc(S(N)(=O)=O)c(Cl)cc2NC1C (stereo not given) [METOLAZONE]
Compound metabolized	CC(C)(C#N)c1cc(Cn2cncn2)cc(C(C)(C)C#N)c1 [ANASTROZOLE]
Compound metabolized	CNS(=O)(=O)Cc1ccc2[nH]cc(CCN(C)C)c2c1.O=C(O)CCC(=O)O [SUMATRIPTAN SUCCINATE]

Conditions: human gut metagenome, 24 h, 2 µM
Remark: another data set of the same source

Bacterial Biotransformation	Compound
Compound NOT metabolized	CCN(CC)CCNC(=O)c1cc(Cl)c(N)cc1OC [METOCLOPRAMIDE]
Compound NOT metabolized	Cc1ccccc1N1C(=O)c2cc(S(N)(=O)=O)c(Cl)cc2NC1C (stereo not given) [METOLAZONE]
Compound metabolized	CC(C)(C#N)c1cc(Cn2cncn2)cc(C(C)(C)C#N)c1 [ANASTROZOLE]
Compound NOT metabolized	CNS(=O)(=O)Cc1ccc2[nH]cc(CCN(C)C)c2c1.O=C(O)CCC(=O)O [SUMATRIPTAN SUCCINATE]

Assay: as §1, with “on WLS-073” for “on Z-014”, “to human” for “to rat”, “number: ERS12561749” for “number: ERS12561814”
Conditions: 2 µM

Bacterial Biotransformation	Compound
Compound NOT metabolized	CCN(CC)CCNC(=O)c1cc(Cl)c(N)cc1OC [METOCLOPRAMIDE]
Compound NOT metabolized	Cc1ccccc1N1C(=O)c2cc(S(N)(=O)=O)c(Cl)cc2NC1C (stereo not given) [METOLAZONE]
Compound NOT metabolized	CC(C)(C#N)c1cc(Cn2cncn2)cc(C(C)(C)C#N)c1 [ANASTROZOLE]
Compound NOT metabolized	CNS(=O)(=O)Cc1ccc2[nH]cc(CCN(C)C)c2c1.O=C(O)CCC(=O)O [SUMATRIPTAN SUCCINATE]

Assay: as §1, with “on WLS-086” for “on Z-014”, “to human” for “to rat”, “number: ERS12561752” for “number: ERS12561814”
Conditions: 2 µM

Bacterial Biotransformation	Compound
Compound metabolized	CCN(CC)CCNC(=O)c1cc(Cl)c(N)cc1OC [METOCLOPRAMIDE]
Compound metabolized	Cc1ccccc1N1C(=O)c2cc(S(N)(=O)=O)c(Cl)cc2NC1C (stereo not given) [METOLAZONE]
Compound NOT metabolized	CC(C)(C#N)c1cc(Cn2cncn2)cc(C(C)(C)C#N)c1 [ANASTROZOLE]
Compound metabolized	CNS(=O)(=O)Cc1ccc2[nH]cc(CCN(C)C)c2c1.O=C(O)CCC(=O)O [SUMATRIPTAN SUCCINATE]

Assay: as §1, with “on Z-017” for “on Z-014”, “to mouse” for “to rat”, “number: ERS12561816” for “number: ERS12561814”
Conditions: 2 µM

Bacterial Biotransformation	Compound
Compound NOT metabolized	CCN(CC)CCNC(=O)c1cc(Cl)c(N)cc1OC [METOCLOPRAMIDE]
Compound NOT metabolized	Cc1ccccc1N1C(=O)c2cc(S(N)(=O)=O)c(Cl)cc2NC1C (stereo not given) [METOLAZONE]
Compound NOT metabolized	CC(C)(C#N)c1cc(Cn2cncn2)cc(C(C)(C)C#N)c1 [ANASTROZOLE]
Compound NOT metabolized	CNS(=O)(=O)Cc1ccc2[nH]cc(CCN(C)C)c2c1.O=C(O)CCC(=O)O [SUMATRIPTAN SUCCINATE]

Assay: as §1, with “on WLS-310” for “on Z-014”, “to human” for “to rat”, “number: ERS12561785” for “number: ERS12561814”
Conditions: 2 µM

Bacterial Biotransformation	Compound
Compound NOT metabolized	CCN(CC)CCNC(=O)c1cc(Cl)c(N)cc1OC [METOCLOPRAMIDE]
Compound NOT metabolized	Cc1ccccc1N1C(=O)c2cc(S(N)(=O)=O)c(Cl)cc2NC1C (stereo not given) [METOLAZONE]
Compound metabolized	CC(C)(C#N)c1cc(Cn2cncn2)cc(C(C)(C)C#N)c1 [ANASTROZOLE]
Compound NOT metabolized	CNS(=O)(=O)Cc1ccc2[nH]cc(CCN(C)C)c2c1.O=C(O)CCC(=O)O [SUMATRIPTAN SUCCINATE]
